Activity calls are given as the source filed them.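 Rule for the calls: active = AC50 no more than ten times the top concentration tested, that is within one log above it; inconclusive = flat curve fit with activity between 30% and 70%, or invalid poor fit; inactive = AC50 beyond ten times the top tested dose.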
The molecules below were run on S. cerevisiae Mot1-301 ts growth rescue, BacTiter-Glo ATP luminescence (assay: growth rescue of Mot1-301 ts yeast, confirmation, SUMOylation pathway inhibitor project, whole organism, S. cerevisiae, Mot1-301 ts mutant, luminescence, dose retest (AID 463204);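 note: growth at restrictive 38.5 degrees C of Mot1-301 OY566 strain; actives raise luminescence by restoring growth of the ts mutant at high temperature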).

Row | Structure (SMILES) | AC50
1 | COc1ccc(CN(CC(=O)NCc2ccco2)C(=O)CCC(=O)Nc2nccs2)cc1 | > 42 µM (inactive)
2 | CS(=O)(=O)N(CC(=O)N1CCCCCC1)Cc1ccc(Cl)cc1 | > 42 µM (inactive)
3 | CCCCCC(=O)Nc1ccc(-c2csc(N)n2)cc1 | > 42 µM (inactive)
4 | O=C(Nc1ccc(S(=O)(=O)NC2=NCCCCC2)cc1)c1ccc(C(F)(F)F)cc1 | > 42 µM (inactive)
5 | Cn1c(CSc2nc3ccccc3s2)nnc1SCC(=O)NCCN1CCOCC1 | > 42 µM (inactive)
6 | CC1(C)CC(=O)C2=C(C1)OC(N)=C(C#N)C21C(=O)N(CN2CCOCC2)c2ccccc21 (stereo unspecified) | > 42 µM (inactive)
7 | OCC[C@@H]1C[C@H](O)[C@@H](O)[C@]2(CCc3ccccc3CO2)O1 | > 42 µM (inactive)
8 | O=C(CCC(=O)OCC(=O)c1ccc(Br)cc1)Nc1cccc2cccnc12 | > 42 µM (inactive)
9 | CCN(CC)C(=O)CSc1nnc(SCc2ccc(Cl)cc2)s1 | > 42 µM (inactive)
10 | Nc1ccc(NC(=O)c2ccco2)c(Cl)c1 | > 42 µM (inactive)
11 | COc1ccc(OCCC(=O)c2ccc(OC)cc2)cc1 | > 42 µM (inactive)
12 | Cc1ccc(-n2nnnc2C(Cl)(Cl)c2nnnn2-c2ccc(C)cc2)cc1 | 0.73 µM
13 | CC(=O)Nc1cccc(OCC(O)Cn2c(C)nc3ccccc32)c1 (stereo unspecified) | > 42 µM (inactive)
14 | N=c1c2c(n(Cc3ccc(Cl)c(Cl)c3)c3c1CCC3)CCCC2 | > 42 µM (inactive)
15 | CN(C)CC/C=C1\c2ccccc2Sc2ccc(Cl)cc21 | > 42 µM (inactive)
16 | COC(=O)[C@@H]1C[C@@H]2CC[C@@H](O)C[C@@H]2N1Cc1ccc(N2CCN(C)CC2)cc1 | > 42 µM (inactive)
17 | CCCCNC(=O)c1ccccc1NC(=O)C1=C(C)OCCS1 | > 42 µM (inactive)
18 | Cc1ccc(C(=O)N/C(=C/c2ccccc2)C(=O)NCC2CCCO2)cc1 (stereo unspecified) | > 42 µM (inactive)
19 | COc1cc2c(cc1OC)C(c1ccc(SC)cc1)CC(=O)N2 (stereo unspecified) | > 42 µM (inactive)
20 | CCOC(=O)c1sc(NC(=O)CSc2n[nH]c(-c3ccccc3)n2)c(C#N)c1C | 20.6 µM
21 | CC(=O)N1N=C(c2ccc(C(C)(C)C)cc2)OC1(C)C | > 42 µM (inactive)
22 | CCCCCCC(C)n1[nH]c(=O)c2c(C)cc(=O)[nH]c21 (stereo unspecified) | > 42 µM (inactive)
23 | Cc1ccc(-c2noc(C3CCCN(S(=O)(=O)c4ccc5ccccc5c4)C3)n2)o1 (stereo unspecified) | > 42 µM (inactive)
24 | O=c1cnc2cc([N+](=O)[O-])ccc2[nH]1 | > 42 µM (inactive)
25 | Cc1cc(S(=O)(=O)N2CCCCC2CCNC(=O)C(=O)NCC2CCCO2)ccc1F (stereo unspecified) | > 42 µM (inactive)
26 | COc1cc(/C=N/NC(=S)NCc2ccco2)cc(OC)c1OC | > 42 µM (inactive)

Row | Structure (SMILES) | AC50
27 | Cc1cccc(N2C(=O)CSC2c2cccnc2)c1 (stereo unspecified) | > 42 µM (inactive)
28 | CC(=O)Nc1cccc2c1C(=O)N(c1ccccc1C)C2=O | > 42 µM (inactive)
29 | O=C(c1ccc(F)cc1)C(CN1CCOCC1)c1ccccc1 (stereo unspecified) | 1.3 µM
30 | CSc1ccccc1NC(=O)COc1nsnc1N1CCOCC1 | > 42 µM (inactive)
31 | CN(C(=S)NC1=CCS(=O)(=O)C1)C1CCCCC1 | > 42 µM (inactive)
32 | O=Cc1cn(Cc2ccccc2F)c2ccccc12 | > 42 µM (inactive)
33 | Cc1nn(C)c(Cl)c1CN1CCN(CCC(C)C)C(CCO)C1 (stereo unspecified) | > 42 µM (inactive)
34 | O=C(NNC(=O)C12CC3CC(CC(C3)C1)C2)c1ccccn1 | 21 µM
35 | Cc1ccnc(NC(=O)CNC(=O)c2ccc(Br)o2)c1 | > 42 µM (inactive)
36 | CC(NC(=O)C12CC3CC(CC(O)(C3)C1)C2)c1ccccc1 (stereo unspecified) | > 42 µM (inactive)
37 | Cc1cccc(C)c1NC(=O)C(Cl)C(=O)c1ccccc1 (stereo unspecified) | 0.68 µM
38 | Cc1ccc(S(=O)(=O)CCC(=O)OCC(=O)N(C)C2CCS(=O)(=O)C2)cc1 (stereo unspecified) | > 42 µM (inactive)
39 | c1ccc2c(c1)OCCOCCOc1ccccc1OCCOCCO2 | > 42 µM (inactive)
40 | CCOC(=O)NC1(Nc2ccc(C)cc2)Oc2ccccc2O1 | > 42 µM (inactive)
41 | COC(=O)[C@@H](NC(=O)Nc1ccc(S(N)(=O)=O)cc1)C(C)C | > 42 µM (inactive)
42 | Cn1cc(C(=O)Cc2ccccc2)c2ccccc21 | > 42 µM (inactive)
43 | C/C(=N\NC(=O)c1ccc(Cl)cc1)c1cccnc1 | > 42 µM (inactive)
44 | COC(=O)c1ccc(CN2CCN(C3CCCCC3)C(CCO)C2)cc1 (stereo unspecified) | > 42 µM (inactive)
45 | CCOc1ccc(CN(C)C(C)C(=O)NCc2ccccc2)cc1 (stereo unspecified) | > 42 µM (inactive)
46 | CC(=O)c1ccc(C(=O)N2CCCC(N3CCN(c4ccc(F)cc4)CC3)C2)s1 (stereo unspecified) | > 42 µM (inactive)
47 | O=C(O)C1CCCN1C(=O)c1cncc(Br)c1 (stereo unspecified) | > 42 µM (inactive)
48 | CCN(CC)c1ccc(/C=N/NC(=O)OC(C)(C)C)cc1 | > 42 µM (inactive)
49 | Cc1c(Cl)cccc1NC(=S)NCCCN(C)C | > 42 µM (inactive)
50 | CCN(CC)S(=O)(=O)c1ccc(NC(=O)C(C)N(c2ccccc2)S(C)(=O)=O)cc1 (stereo unspecified) | > 42 µM (inactive)
51 | CN(CC(=O)Nc1cccc(F)c1)CC(=O)Nc1cccc(S(N)(=O)=O)c1 | > 110 µM (inactive)
52 | COc1ccc(CCN(C)CCCC(C#N)(c2ccc(OC)c(OC)c2)C(C)C)cc1OC (stereo unspecified) | > 42 µM (inactive)

Row | Structure (SMILES) | AC50
53 | O=C(CSc1nc(-c2ccccc2)cc(=O)[nH]1)Nc1ccc(Br)cc1 | > 42 µM (inactive)
54 | c1ccc2cc(C3CCCCC3)ncc2c1 | 14 µM
55 | CCCCn1c(N)c(N(CCOC)C(=O)c2cnccn2)c(=O)[nH]c1=O | > 42 µM (inactive)
56 | Cc1c(C(=O)NC(C)C)oc2c1-c1[nH]ncc1CC2 | > 42 µM (inactive)
57 | NNC(=O)c1[nH]c2ccccc2c1-c1ccccc1 | > 42 µM (inactive)
58 | Cc1cc(C)c(OCC(=O)N/N=C/c2ccco2)c(C)c1 | > 42 µM (inactive)
59 | COc1ccc(NC(=O)CCCc2ccccc2)cc1OC | > 42 µM (inactive)
60 | C=CC(=O)NC1CC2CCC1(C)C2(C)C (stereo unspecified) | > 42 µM (inactive)
61 | CCN(CC)S(=O)(=O)c1ccc(S(=O)(=O)N2CCC(C(=O)NC3CCN(Cc4ccccc4)CC3)CC2)cc1 | > 42 µM (inactive)
62 | Cn1c(CN2CCOCC2)nnc1SCC(=O)Nc1cc(Cl)ccc1Cl | > 42 µM (inactive)
63 | CCOC(=O)C1ON2CCCCC2C1(O)C(F)(F)F (stereo unspecified) | > 42 µM (inactive)
64 | C=C(C)C(=O)OC1(C(F)(F)F)Oc2cc(C)ccc2NC1=O (stereo unspecified) | 4.67 µM
65 | CCOc1ccccc1/C=N\Nc1cnn(Cc2ccccc2)c(=O)c1Cl | > 42 µM (inactive)
66 | Cc1cccc(N2CCN(CCCNC(=O)c3ccc(NC(=O)C4=CSCCO4)cc3)CC2C)c1 (stereo unspecified) | > 42 µM (inactive)
67 | COc1ccc(-c2nc3c(c(SCC(=O)N4CCOCC4)n2)Cc2c(CO)cnc(C)c2O3)cc1 | > 42 µM (inactive)
68 | C/C(=N\NC(=O)c1cccc(N/N=C(\C)c2ccc([N+](=O)[O-])cc2)c1)c1ccc([N+](=O)[O-])cc1 | > 42 µM (inactive)
69 | CCCCn1c(N)c(N(CCOC)C(=O)c2ccc(Cl)c(S(=O)(=O)N3CCCCC3)c2)c(=O)[nH]c1=O | > 42 µM (inactive)
70 | CCOc1ccc(NS(=O)(=O)c2ccc(C(=O)NCc3cccnc3)cc2)cc1 | > 42 µM (inactive)
71 | Cc1c(C(=O)NC(=S)Nc2ccccc2N2CCCC2)cccc1[N+](=O)[O-] | > 42 µM (inactive)
72 | Cc1cc(C(=O)N/N=C/c2ccc3c(c2)OCO3)c2ccccc2n1 | > 42 µM (inactive)
73 | CCCN1C(=O)c2ccccc2NC1c1ccc(C)cc1 (stereo unspecified) | > 42 µM (inactive)
74 | O=C(Nc1nc(-c2ccccn2)cs1)c1ccc2c(c1)OCCO2 | > 42 µM (inactive)
75 | O=C1Nc2ccccc2/C1=C/c1ccc([N+](=O)[O-])cc1 | > 42 µM (inactive)
76 | Cc1cc2nc(CCl)cc(=O)n2[nH]1 | > 42 µM (inactive)
77 | Cc1ccc(S(=O)(=O)N[C@@H](Cc2ccccc2)C(=O)CCl)cc1 | 1.47 µM
78 | CC1(C)C2CC=C(/C=N/NC(=S)Nc3cccnc3)C1C2 (stereo unspecified) | > 42 µM (inactive)

Row | Structure (SMILES) | AC50
79 | CC(C)Oc1ccc(CCC(=O)NNC(=O)c2ccccc2C(=O)O)cc1 | > 42 µM (inactive)
80 | CCOc1ccccc1CN1CCNC(=O)C1CC(=O)NCCN1CCOC1=O (stereo unspecified) | > 42 µM (inactive)
81 | COc1cc(CNCCN2CCOCC2)ccc1OCc1ccccc1Cl | > 42 µM (inactive)
82 | CCN(CC)CCCn1c(=S)[nH]c2ccc(Cl)cc2c1=O | > 42 µM (inactive)
83 | CC(=O)Cc1nsc(Nc2cccc(C)c2)n1 | > 42 µM (inactive)
84 | N#Cc1ccc(C23CC4(C2)[C@H](CN(Cc2ccc(C(F)(F)F)cc2)[C@@H]4c2ccccc2)C3c2ccc(C(F)(F)F)cc2)cc1 (stereo partly specified) | > 42 µM (inactive)
85 | O=C(c1ccccc1F)N1CCN=C1SCc1cccnc1 | > 42 µM (inactive)
86 | COc1ccc(OC)c(NC(=O)CNC(=O)Cn2ccc3ccccc3c2=O)c1 | > 42 µM (inactive)
87 | Cc1ccc(C(=O)NNc2ncnc3c2cnn3C)cc1 | > 42 µM (inactive)
88 | CCn1c(SC(=O)NC2CCCCC2)nnc1-c1cccs1 | 11.6 µM
89 | CCCCCCCN1C(Nc2ccccc2)=NC[C@@H]1CC(C)C | > 21 µM (inactive)
90 | O=C(NCCNc1ccc(Cl)cc1[N+](=O)[O-])c1ccccc1F | > 42 µM (inactive)
91 | COC(=O)CCCC(=O)NCC1(N(C)Cc2ccccc2)Cc2ccccc2C1 | > 42 µM (inactive)
92 | O=C(Nc1ccccn1)c1ccc(CN(c2ccccc2)S(=O)(=O)c2ccccc2)cc1 | > 42 µM (inactive)
93 | CCCOc1ccc(N2C(=O)CC(N3CCC(C(=O)OCC)CC3)C2=O)cc1 (stereo unspecified) | 13.1 µM
94 | Cc1ccccc1C(=O)/C=C1\NC(=O)CS1 | > 21 µM (inactive)
95 | CCOC(=O)C1CCN(CC(O)COCc2ccccc2)CC1 (stereo unspecified) | > 42 µM (inactive)
96 | CCC(C(=O)Nc1cccnc1)c1ccccc1 (stereo unspecified) | > 42 µM (inactive)
97 | CCOC(=O)C1CCN(Cc2ccc(OCc3ccccc3)cc2)CC1 | > 42 µM (inactive)
98 | O=C(COc1ncnc2ccccc12)Nc1ccc(Cl)c(S(=O)(=O)N2CCOCC2)c1 | > 42 µM (inactive)
99 | O=c1c2ccccc2nc(SCc2nnc(-c3ccccc3)o2)n1-c1ccc(F)cc1F | > 42 µM (inactive)
100 | CCCC(=O)Oc1c(S(=O)(=O)c2ccc(C)cc2)c(C)nn1C(C)(C)C | > 42 µM (inactive)
101 | COc1ccc(NC(=O)COc2cc(C)cc(C)c2)cc1S(=O)(=O)N1CCCCC1 | > 42 µM (inactive)
